These results are taken from ChEMBL document CHEMBL1126596, “Potent and selective inhibitors of an aspartyl protease-like endothelin converting enzyme identified in rat lung” (J Med Chem, 1993).

For assay [1], the target named is T1, Cathepsin D (Bos taurus, UniProt P80209).
T1 sequence (P80209 whole entry): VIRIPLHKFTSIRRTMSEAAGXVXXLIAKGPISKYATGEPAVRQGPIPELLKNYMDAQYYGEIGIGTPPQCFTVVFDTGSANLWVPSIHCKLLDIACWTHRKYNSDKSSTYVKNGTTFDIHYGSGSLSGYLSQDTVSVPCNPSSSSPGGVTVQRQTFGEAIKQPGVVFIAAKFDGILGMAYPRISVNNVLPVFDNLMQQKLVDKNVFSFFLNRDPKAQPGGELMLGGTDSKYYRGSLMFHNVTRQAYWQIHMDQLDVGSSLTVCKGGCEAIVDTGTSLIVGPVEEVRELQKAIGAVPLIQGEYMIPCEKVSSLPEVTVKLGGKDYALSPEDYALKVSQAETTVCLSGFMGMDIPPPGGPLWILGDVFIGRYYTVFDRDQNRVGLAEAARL
The experiment in a line: In vitro inhibition of onversion of hemoglobin by commercially purchased bovine spleen Cathepsin D. It counts as functional.

The target in assay [2] is T2, Renin (Homo sapiens, UniProt P00797).
T2 sequence (P00797 whole entry): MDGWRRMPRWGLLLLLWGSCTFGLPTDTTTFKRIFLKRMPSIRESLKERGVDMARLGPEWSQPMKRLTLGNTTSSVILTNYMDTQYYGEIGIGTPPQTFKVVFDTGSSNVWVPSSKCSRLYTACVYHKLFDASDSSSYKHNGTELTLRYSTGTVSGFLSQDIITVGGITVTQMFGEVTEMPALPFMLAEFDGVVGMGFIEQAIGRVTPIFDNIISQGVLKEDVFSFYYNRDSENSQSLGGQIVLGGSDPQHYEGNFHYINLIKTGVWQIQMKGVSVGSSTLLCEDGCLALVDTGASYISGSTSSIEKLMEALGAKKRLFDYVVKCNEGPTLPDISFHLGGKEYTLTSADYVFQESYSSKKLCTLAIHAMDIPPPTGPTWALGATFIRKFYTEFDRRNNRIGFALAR
Put plainly: In vitro inhibition of partially purified human renin at pH 6.0.

In assay [3] the target is T1, Cathepsin D. The experiment in a line: Inhibition of conversion of hemoglobin by commercially purchased bovine spleen cathepsin D.

Molecules are shown by their SMILES.

As usually defined, the IC50 is the concentration at which inhibition is half-maximal. A low value points to greater potency in that assay.

For `CC[C@@H](C)[C@H](NC(=O)OC(C)(C)C)C(=O)N[C@H](C(=O)N[C@@H](CC(C)C)C(O)CC(=O)NCCCCCCO)[C@H](C)CC` (some centres not stated), in assay [1], the midpoint of inhibition, the IC50, lay at 68 nM. As to `CC[C@@H](C)[C@H](NC(=O)OC(C)(C)C)C(=O)N[C@H](C(=O)N[C@@H](Cc1cccc2ccccc12)[C@@H](O)[C@@H](O)CC(C)C)[C@H](C)CC`, the IC50 in assay [2] and in assay [3] was greater than 10000 nM throughout.

`CC[C@H](C)[C@H](NC(=O)[C@H](CC1CCCCC1)NC(=O)OC(C)(C)C)C(=O)N[C@@H](Cc1c[nH]c2ccccc12)[C@@H](O)[C@@H](O)CC(C)C`: the IC50 in assay [2] is greater than 10000 nM; in assay [3] it was 210 nM. Taken in the same sequence, the figures for `CC[C@H](C)[C@H](NC(=O)[C@H](CC1CCCCC1)NC(=O)OC(C)(C)C)C(=O)N[C@@H](Cc1c[nH]c2ccccc12)C(O)CC(=O)N[C@H](C(=O)O)C(C)C` (some centres not stated) were greater than 10000 nM and 620 nM.
